Laboratory results reported in US10988477B2 (Merck Patent GmbH, priority 2018, dated 2021).

biological target: GCN2 kinase (Homo sapiens, UniProt Q9P2K8); test: GCN2 enzyme inhibition assay (Transcreener ADP2 fluorescence polarization); format: biochemical; conditions: Enzyme activity for compounds of Formula IV; Ki(app), 280 μM ATP, 25° C.
Experimental: Compounds were screened for their ability to inhibit GCN2 kinase activity using a Transcreener® ADP^2 fluorescence polarization assay that detects ADP levels (BellBrook Labs, WI). Assays were carried out in a buffer consisting of 25 mM Tris-HCl (pH 7.5), 50 mM NaCl, 10 mM MgCl2 and 1 mM DTT. Final substrate concentrations were 280 μM ATP and 200 μM peptidic substrate ([…]-OH [(RS)7], Bachem, Switzerland). Assays were carried out at 25° C. in the presence of a (typical) final concentration of 4 nM GCN2 kinase. An assay buffer containing GCN2 kinase and (RS)7 was prepared. 4.7 μL of this stock solution was placed per well of a black, low volume, 384-well microtitre plate (e.g. catalogue number 3676, Corning Inc., NY). To this was added […] of DMSO containing serial dilutions of the test compound (typical final concentrations of test compound were 0 to 8 μM). The plate was incubated for 10 minutes at 25° C. prior to the addition of 4.7 μL of ATP stock buffer to initiate the enzyme reaction. The reaction was allowed to proceed for 1 hour at 25° C., prior to the addition of 10 μL detection buffer (consisting of appropriate concentrations of ADP^2 antibody and ADP Alexa633 tracer in 1× stop and detect buffer as supplied by BellBrook Labs). […] Percentage inhibition of enzyme activity was then calculated at each compound dose. IC50 and Ki(app) (using known assay and kinetic parameters) values were calculated from percentage inhibition data using a non-linear, tight-binding algorithm. All data analysis was undertaken using the Screener® software package (Genedata, Switzerland).

Sequence of GCN2 kinase (Q9P2K8 whole entry): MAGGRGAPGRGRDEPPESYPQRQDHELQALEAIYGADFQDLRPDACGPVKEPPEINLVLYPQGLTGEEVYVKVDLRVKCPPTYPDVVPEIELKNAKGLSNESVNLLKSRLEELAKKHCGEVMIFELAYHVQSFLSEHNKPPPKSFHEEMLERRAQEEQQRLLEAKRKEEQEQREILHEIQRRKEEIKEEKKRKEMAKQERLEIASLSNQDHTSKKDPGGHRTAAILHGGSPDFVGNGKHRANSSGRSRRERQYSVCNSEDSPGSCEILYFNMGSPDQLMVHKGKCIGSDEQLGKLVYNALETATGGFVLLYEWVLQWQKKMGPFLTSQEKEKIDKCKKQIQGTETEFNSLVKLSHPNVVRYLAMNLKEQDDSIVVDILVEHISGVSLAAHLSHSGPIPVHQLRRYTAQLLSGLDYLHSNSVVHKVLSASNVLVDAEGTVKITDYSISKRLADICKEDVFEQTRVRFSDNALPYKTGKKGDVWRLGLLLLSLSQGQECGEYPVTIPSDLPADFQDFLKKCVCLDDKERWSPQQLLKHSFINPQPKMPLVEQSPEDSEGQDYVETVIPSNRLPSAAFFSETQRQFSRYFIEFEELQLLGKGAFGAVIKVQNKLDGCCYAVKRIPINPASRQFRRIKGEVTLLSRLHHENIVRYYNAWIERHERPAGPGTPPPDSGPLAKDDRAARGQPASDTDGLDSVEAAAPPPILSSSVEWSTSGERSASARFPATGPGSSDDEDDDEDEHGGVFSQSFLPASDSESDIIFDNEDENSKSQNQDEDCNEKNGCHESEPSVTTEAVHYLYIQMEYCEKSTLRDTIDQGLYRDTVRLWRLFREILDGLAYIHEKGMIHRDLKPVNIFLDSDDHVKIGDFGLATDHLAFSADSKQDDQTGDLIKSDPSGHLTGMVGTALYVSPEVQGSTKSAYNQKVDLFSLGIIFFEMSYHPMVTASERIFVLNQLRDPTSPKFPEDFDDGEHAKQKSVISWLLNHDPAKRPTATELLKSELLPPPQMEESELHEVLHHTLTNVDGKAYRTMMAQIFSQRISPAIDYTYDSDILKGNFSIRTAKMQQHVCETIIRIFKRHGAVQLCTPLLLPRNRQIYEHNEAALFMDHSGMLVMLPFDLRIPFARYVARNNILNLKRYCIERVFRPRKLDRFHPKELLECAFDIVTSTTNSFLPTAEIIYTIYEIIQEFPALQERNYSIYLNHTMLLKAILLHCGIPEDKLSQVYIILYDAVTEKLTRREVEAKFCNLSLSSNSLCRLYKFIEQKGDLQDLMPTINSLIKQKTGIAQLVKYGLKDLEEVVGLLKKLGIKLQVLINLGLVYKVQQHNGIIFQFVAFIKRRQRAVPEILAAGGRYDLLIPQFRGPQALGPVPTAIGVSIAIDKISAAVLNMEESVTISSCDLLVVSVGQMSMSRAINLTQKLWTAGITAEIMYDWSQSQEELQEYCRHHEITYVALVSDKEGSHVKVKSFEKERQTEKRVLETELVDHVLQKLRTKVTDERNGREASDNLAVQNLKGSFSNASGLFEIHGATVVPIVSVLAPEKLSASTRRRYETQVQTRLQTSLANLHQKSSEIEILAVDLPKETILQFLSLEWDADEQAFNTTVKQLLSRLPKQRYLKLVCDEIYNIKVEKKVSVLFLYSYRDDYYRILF

Question: With `CC(=O)N1CCN(c2cccc(-c3cnc4cnc(C(=O)N(C)C)cn34)n2)CC1` [IV-276, 3-(6-(4-Acetylpiperazin-1-yl)pyridin-2-yl)-N,N-dimethylimidazo[1,2-a]pyrazine-6-carboxamide] as the molecule, how does the Ki read?
Answer: 100 to 1000 nM

Question: For `FC(F)(F)c1cn2c(-c3nccc(N4CCCC(c5ncno5)C4)n3)cnc2cn1` (stereo not drawn) [IV-322, 5-(1-(2-(6-(Trifluoromethyl)imidazo[1,2-a]pyrazin-3-yl)pyrimidin-4-yl)piperidin-3-yl)-1,2,4-oxadiazole], which Ki is on record?
Answer: 100 to 1000 nM

Question: `FC(F)(F)c1cn2c(-c3nccc(N4CCC(CN5CCOCC5)CC4)n3)cnc2cn1` [IV-510, 4-((1-(2-(6-(Trifluoromethyl)imidazo[1,2-a]pyrazin-3-yl)pyrimidin-4-yl)piperidin-4-yl)methyl)morpholine] was tested. Which Ki did it give?
Answer: 100 to 1000 nM

Question: How did the Ki turn out when `CC1NC(c2cn[nH]c2)C(C)N(c2ccnc(-c3cnc4cnc(C(F)(F)F)cn34)n2)C1C` (single isomer, unassigned) [IV-336, 6-(Trifluoromethyl)-3-(4-(2,3,6-trimethyl-5-(1H-pyrazol-4-yl)piperazin-1-yl)pyrimidin-2-yl)imidazo[1,2-a]pyrazine] was run?
Answer: 100 to 1000 nM

Question: For `O=C(N[C@H]1CCCN(c2ccnc(-c3cnc4cnc(C(F)(F)F)cn34)n2)C1)c1cc[nH]n1` [IV-737], which Ki is on record?
Answer: > 1000 nM

Question: With `CC1C(c2cn[nH]c2)OCCN1c1ccnc(-c2cnc3cnc(Br)cn23)n1` (single isomer, unassigned) [IV-328, 4-(2-(6-Bromoimidazo[1,2-a]pyrazin-3-yl)pyrimidin-4-yl)-3-methyl-2-(1H-pyrazol-4-yl)morpholine] as the molecule, how does the Ki read?
Answer: < 10 nM

Question: With `C[C@H]1CCCCN1c1ccnc(-c2cnc3cnc(C(F)(F)F)cn23)n1` (single isomer, unassigned) [IV-597] as the molecule, how does the Ki read?
Answer: 10 to 100 nM

Question: With `C[C@H]1CN(c2ccnc(-c3cnc4cnc(C(F)(F)F)cn34)n2)C[C@@H](c2c[nH]cn2)O1` (racemic) [IV-380, Cis-2-(1H-Imidazol-4-yl)-6-methyl-4-(2-(6-(trifluoromethyl)imidazo[1,2-a]pyrazin-3-yl)pyrimidin-4-yl)morpholine] as the molecule, how does the Ki read?
Answer: < 10 nM

Question: Which Ki does the source give for `NC(=O)c1cn2c(-c3nccc(N4CC5(CCOC5)C4)n3)cnc2cn1` [IV-270, 3-(4-(6-Oxa-2-azaspiro[3.4]octan-2-yl)pyrimidin-2-yl)imidazo[1,2-a]pyrazine-6-carboxamide] here?
Answer: 100 to 1000 nM

Question: `O=C(Nc1ccncc1)[C@H]1CCCN(c2ccnc(-c3cnc4cnc(C(F)(F)F)cn34)n2)C1` [IV-720] was tested. Which Ki did it give?
Answer: 100 to 1000 nM

Question: With `CC1CN(c2ccnc(-c3cnc4cnc(C(F)(F)F)cn34)n2)C(C)C(c2cn[nH]c2)N1` (single isomer, unassigned) [IV-223, 3-(4-(2,5-Dimethyl-3-(1H-pyrazol-4-yl)piperazin-1-yl)pyrimidin-2-yl)-6-(trifluoromethyl)imidazo[1,2-a]pyrazine] as the molecule, how does the Ki read?
Answer: 100 to 1000 nM

Question: For `CC(C)C1CN(c2ccnc(-c3cnc4cnc(C(F)(F)F)cn34)n2)C(C)C(c2cn[nH]c2)N1` (stereo not drawn) [IV-330, 3-(4-(5-Isopropyl-2-methyl-3-(1H-pyrazol-4-yl)piperazin-1-yl)pyrimidin-2-yl)-6-(trifluoromethyl)imidazo[1,2-a]pyrazine], which Ki is on record?
Answer: 10 to 100 nM

Question: For `CS(=O)(=O)CC1CCN(c2ccnc(-c3cnc4cnc(C(F)(F)F)cn34)n2)C1` (stereo not drawn) [IV-604, 3-(4-(3-((methylsulfonyl)methyl)pyrrolidin-1-yl)pyrimidin-2-yl)-6-(trifluoromethyl)imidazo[1,2-a]pyrazine], which Ki is on record?
Answer: 100 to 1000 nM

Question: Which Ki does the source give for `FC(F)(F)c1cn2c(-c3nccc(N4CCC(c5nnc[nH]5)C4)n3)cnc2cn1` (stereo not drawn) [IV-642, 3-(4-(3-(4H-1,2,4-Triazol-3-yl)pyrrolidin-1-yl)pyrimidin-2-yl)-6-(trifluoromethyl)imidazo[1,2-a]pyrazine] here?
Answer: 100 to 1000 nM

same assay, conditions: compounds of Formula II; 280 μM ATP, 4 nM GCN2 kinase

Question: `CS(=O)(=O)NC1CN(c2cc(-c3cnc4ccc(C(F)F)nn34)ncn2)CCC1(F)F` (stereo not drawn) [II-596, N-(1-(6-(6-(Difluoromethyl)imidazo[1,2-b]pyridazin-3-yl)pyrimidin-4-yl)-4,4-difluoropiperidin-3-yl)methanesulfonamide] was tested. Which Ki did it give?
Answer: 10 to 1000 nM

Question: How did the Ki turn out when `CC1C(CNS(C)(=O)=O)C(F)(F)C(C)CN1c1cc(-c2cnc3ccc(C(F)F)nn23)ncn1` (single isomer, unassigned) [II-467, N-((1-(6-(6-(Difluoromethyl)imidazo[1,2-b]pyridazin-3-yl)pyrimidin-4-yl)-4,4-difluoro-2,5-dimethylpiperidin-3-yl)methyl)methanesulfonamide] was run?
Answer: < 10 nM

Question: Which Ki does the source give for `CC1CN(c2cc(-c3cnc4ccc(C(F)F)nn34)ncn2)CC(CO)C1(F)F` (stereo not drawn) [II-623, (1-(6-(6-(Difluoromethyl)imidazo[1,2-b]pyridazin-3-yl)pyrimidin-4-yl)-4,4-difluoro-5-methylpiperidin-3-yl)methanol] here?
Answer: < 10 nM

Question: `CC1CN(c2cc(-c3cnc4ccc(C(F)F)nn34)ncn2)C(C)C(c2cn[nH]c2)N1` (single isomer, unassigned) [II-653, 6-(Difluoromethyl)-3-(6-(2,5-dimethyl-3-(1H-pyrazol-4-yl)piperazin-1-yl)pyrimidin-4-yl)imidazo[1,2-b]pyridazine] was tested. Which Ki did it give?
Answer: 10 to 1000 nM

Question: How did the Ki turn out when `CCS(C)(=O)=NC1CC(C)CN(c2cc(-c3cnc4ccc(C(F)F)nn34)ncn2)C1` (single isomer, unassigned) [II-641, ((1-(6-(6-(Difluoromethyl)imidazo[1,2-b]pyridazin-3-yl)pyrimidin-4-yl)-5-methylpiperidin-3-yl)imino)(ethyl)(methyl)-λ^6-sulfanone] was run?
Answer: 10 to 1000 nM

Question: Which Ki does the source give for `Cc1noc([C@@H]2CN(c3cc(-c4cnc5ccc(C(F)(F)F)nn45)ccn3)C[C@@H](C)O2)n1` [II-742] here?
Answer: 10 to 1000 nM

Question: How did the Ki turn out when `C[C@H]1C[C@@H](CS(C)(=N)=O)[C@@H](C)N(c2cc(-c3cnc4ccc(C(F)F)nn34)ncn2)C1` (stereo partly drawn) [II-604, (((2R,3R,5S)-1-(6-(6-(Difluoromethyl)imidazo[1,2-b]pyridazin-3-yl)pyrimidin-4-yl)-2,5-dimethylpiperidin-3-yl)methyl)(imino)(methyl)-λ^6-sulfanone] was run?
Answer: 10 to 1000 nM

Question: How did the Ki turn out when `N#CCC1CCCN(c2cc(-c3cnc4ccc(C(F)(F)F)nn34)ncn2)C1` (stereo not drawn) [II-501, 2-(1-(6-(6-(Trifluoromethyl)imidazo[1,2-b]pyridazin-3-yl)pyrimidin-4-yl)piperidin-3-yl)acetonitrile] was run?
Answer: 10 to 1000 nM

Question: How did the Ki turn out when `CC1CC(N=S(C)(C)=O)CN(c2cc(-c3cnc4ccc(C#N)nn34)ncn2)C1` (stereo not drawn) [II-702, 3-(6-(3-((Dimethyl(oxo)-λ^6-sulfanylidene)amino)-5-methylpiperidin-1-yl)pyrimidin-4-yl)imidazo[1,2-b]pyridazine-6-carbonitrile] was run?
Answer: 10 to 1000 nM

Question: How did the Ki turn out when `CCS(C)(=O)=NC1CC(C)CN(c2cc(-c3cnc4ccc(C(F)F)nn34)ncn2)C1` (single isomer, unassigned) [II-643, ((1-(6-(6-(Difluoromethyl)imidazo[1,2-b]pyridazin-3-yl)pyrimidin-4-yl)-5-methylpiperidin-3-yl)imino)(ethyl)(methyl)-λ^6-sulfanone] was run?
Answer: < 10 nM

Question: How did the Ki turn out when `FC(F)(F)c1ccc2ncc(-c3ccnc(N4CCCC(c5ncc[nH]5)C4)c3)n2n1` (stereo not drawn) [II-746] was run?
Answer: 10 to 1000 nM

Question: For `N#CCC1CN(c2cc(-c3cnc4ccc(C(F)F)nn34)ncn2)CCO1` (single isomer, unassigned) [II-565, 2-(4-(6-(6-(Difluoromethyl)imidazo[1,2-b]pyridazin-3-yl)pyrimidin-4-yl)morpholin-2-yl)acetonitrile], which Ki is on record?
Answer: 10 to 1000 nM

Question: `FC(F)(F)c1ccc2ncc(-c3cc(-c4cnn(C5CCOCC5)c4)ncn3)n2n1` [II-708, 3-[6-(1-Tetrahydropyran-4-ylpyrazol-4-yl)pyrimidin-4-yl]-6-(trifluoromethyl)imidazo[1,2-b]pyridazine] was tested. Which Ki did it give?
Answer: > 1000 nM
